Reference: patent publication US11952369B2 (Kadmon Corporation, LLC, priority 2022, dated 2024)
Where “and” joins values, the source holds several entries; their conditions need not be identical. Equal values may be shown once. Where a name gives a salt, the structure may show the parent alone. Marks after values point to notes of the source that are not given here.

Assays:
ROCK2 = biological target: T1, ROCK2 (Rattus norvegicus, UniProt Q62868); experiment: Inhibition of ROCK2 enzymatic activity, immunoabsorbed full length enzyme, S6 kinase substrate peptide, [γ33P]ATP; format: biochemical; details: for Ki: ROCK2
T1 construct: Full length rat ROCK1 and ROCK2 proteins were isolated from various tumor cell lines or tissues by immunoabsorption; endogenous in cells
Procedure: Full length rat ROCK1 and ROCK2 proteins were isolated from various tumor cell lines or tissues by immunoabsorption to 24-well microtiter plates pre-coated with antibodies specific for each isozyme. Reactions were initiated by the addition of S6 kinase substrate peptide, [γ33P]ATP, and study drug, and incubated at 37° C. for 20 minutes. Reactions were terminated by addition of phosphoric acid and the radioactivity was quantified using standard methods.

[1] = Phase 1 study part 1: absolute bioavailability, oral 200-mg tablet plus [14C]-belumosudil IV microtracer, plasma PK; format: in vivo, human; details: 100 μg IV; for half-life: iv
Procedure: (§1) This was a single-center, nonrandomized, open-label, 2-part study in 5 healthy male subjects aged 30 to 65 years. All oral doses were administered following an overnight fast and a standard breakfast on the day of dosing.
(timed to occur at the expected maximum concentration [Cmax]). To determine absolute bioavailability, a microtracer dose was chosen as it negates the need for an IV formulation with good stability. Additionally, due to use of a very low dose, further nonclinical studies such as local tolerance and general toxicology studies were not warranted.
Blood samples for IV [^14C]-belumosudil PK analysis and total radioactivity were collected at −0.25, −0.16, −0.08, 0, 0.08, 0.16, 0.25, 0.5, 0.75, 1, 1.5, 2, 3, 4, 5, 6, 8, 10, 12, 22, 34, and 46 hours after the end of infusion (EOI). All samples were processed to plasma within 30 minutes of collection by centrifugation at 2000 g for 10 minutes at 4° C., and
Total [^14C]-belumosudil concentrations were determined by accelerator mass spectrometry (AMS). […] Selected samples were diluted with commercial plasma to ensure that concentrations would fall within the acceptable range for AMS analysis. The samples were converted to graphite through combustion to CO2 followed by reduction to graphite. The graphite targets were then analyzed by AMS (LLOQ of 0.00489, 0.00557, 0.00485, 0.00402, and 0.00372 ng equiv/mL for individual subjects). All ^14C data was background-corrected based on predose [^14C]-belumosudil concentrations.
Eluate fractions corresponding to [^14C]-belumosudil were collected before AMS analysis (LLOQ of 1.55 pg equiv/mL).
(§2) PK parameter estimates were used to calculate absolute bioavailability and metabolite-to-parent ratio.

[2] = Phase 1 study part 2: plasma and whole-blood PK after oral 200 mg [14C]-belumosudil capsule; format: in vivo, human; details: for F, AUCinf (bioavailability) / F, Cmax (bioavailability): oral [14C]-belumosudil 200-mg capsule vs IV [14C]-belumosudil dose of part 1; for half-life: 200 mg
Procedure: as §1
(§3) For the mass balance and metabolic profiling study (part 2), following at least a 7-day washout from part 1, subjects received a single oral dose of a 200 mg [^14C]-belumosudil capsule containing NMT 9.8 MBq [^14C]. This level of radioactivity was selected based on human dosimetry calculations conducted by Public Health England that determined a radioactive oral dose of NMT 9.8 MBq would be necessary to permit adequate metabolite profiling of key samples. Taking the part 1 microtracer dose into account, the total committed effective dose subjects received in the study was 3 mSv, which falls within the International Commission on Radiological Protection Guidelines for Category IIb studies. Additionally, to remain within the limit for radioactive dose approved by the UK Administration of Radioactive Substances Advisory Committee, the target-specific activity of [^14C]-belumosudil was set to 90% of the threshold radioactive dosing limit.
Whole-blood samples for total radioactivity and plasma samples for metabolite pro-filing and identification were collected before dosing and 1, 4, 8, 12, 24, 48, 72, 96, 120, 144, and 168 hours after dosing. […] Whole-blood samples for total radioactivity were collected into tripotassium ethylene-diaminetetraacetic acid tubes and stored at 2 to 8° C. pending analysis. […] (metabolite profiling samples).
(§4) Total radioactivity whole-blood, plasma, and urine samples were prepared for LSC by mixing with scintillation fluid. In addition, aliquots of whole blood were solubilized with AquiGest tissue solubilization fluid and plasma samples were mixed with 10 mM of phosphate-buffered saline. Urine and fecal samples were pooled per subject by time interval before analysis. In addition, fecal samples were combusted using an automatic sample oxidizer prior to LSC. Radioactivity in all samples was measured using an LSC with automatic external standard quench correction (2300TR, 2900TR, and 3100TR Tri-Carb, Scintillation Counters; PerkinElmer, Waltham, Massachusetts), with samples counted for 4 minutes. The LLOQ was considered to be twice the background value for samples of the same type (1.39 [urine], 23.9 [feces], 35.5 [whole blood], and 30.9 [plasma] ng equivalents [free base]/g or mL).
as §2

[3] = Phase 1 study part 2: mass balance recovery of total radioactivity in excreta; format: in vivo, human; details: oral 200-mg [14C]-belumosudil capsule
Procedure: as §3
Urine for total radioactivity and metabolite profiling and identification was collected before dosing (the first void of the day) and pooled from 0 to 6, 6 to 12, and 12 to 24 hours after dosing followed by daily (24-hour) collections until day 8/discharge. Urine samples were pooled per interval and stored at 2 to 8° C. pending analysis. Feces were collected from admission until before dosing and then daily (24-hour) collections until discharge. Fecal samples were pooled per time interval and stored at −20° C. pending analysis.
as §4

Solubility = format: physicochemical; details: water
patients with cGVHD = details: cited from earlier work
[4] = arithmetic mean (standard deviation), Part 1, [14C]-belumosudil
[5] = arithmetic mean (standard deviation), Part 1, total radioactivity
[6] = geometric mean (geometric CV %), Part 1, [14C]-belumosudil
[7] = geometric mean (geometric CV %), Part 1, total radioactivity
[8] = arithmetic mean (standard deviation), Part 2, [14C]-belumosudil 200-mg capsule
[9] = arithmetic mean (standard deviation), Part 2
[10] = arithmetic mean (standard deviation), Part 2, total radioactivity, 200-mg capsule
[11] = geometric mean (geometric CV %), Part 2, [14C]-belumosudil 200-mg capsule
[12] = geometric mean (geometric CV %), Part 2
[13] = geometric mean (geometric CV %), Part 2, total radioactivity, 200-mg capsule

T1 sequence (Q62868 whole entry): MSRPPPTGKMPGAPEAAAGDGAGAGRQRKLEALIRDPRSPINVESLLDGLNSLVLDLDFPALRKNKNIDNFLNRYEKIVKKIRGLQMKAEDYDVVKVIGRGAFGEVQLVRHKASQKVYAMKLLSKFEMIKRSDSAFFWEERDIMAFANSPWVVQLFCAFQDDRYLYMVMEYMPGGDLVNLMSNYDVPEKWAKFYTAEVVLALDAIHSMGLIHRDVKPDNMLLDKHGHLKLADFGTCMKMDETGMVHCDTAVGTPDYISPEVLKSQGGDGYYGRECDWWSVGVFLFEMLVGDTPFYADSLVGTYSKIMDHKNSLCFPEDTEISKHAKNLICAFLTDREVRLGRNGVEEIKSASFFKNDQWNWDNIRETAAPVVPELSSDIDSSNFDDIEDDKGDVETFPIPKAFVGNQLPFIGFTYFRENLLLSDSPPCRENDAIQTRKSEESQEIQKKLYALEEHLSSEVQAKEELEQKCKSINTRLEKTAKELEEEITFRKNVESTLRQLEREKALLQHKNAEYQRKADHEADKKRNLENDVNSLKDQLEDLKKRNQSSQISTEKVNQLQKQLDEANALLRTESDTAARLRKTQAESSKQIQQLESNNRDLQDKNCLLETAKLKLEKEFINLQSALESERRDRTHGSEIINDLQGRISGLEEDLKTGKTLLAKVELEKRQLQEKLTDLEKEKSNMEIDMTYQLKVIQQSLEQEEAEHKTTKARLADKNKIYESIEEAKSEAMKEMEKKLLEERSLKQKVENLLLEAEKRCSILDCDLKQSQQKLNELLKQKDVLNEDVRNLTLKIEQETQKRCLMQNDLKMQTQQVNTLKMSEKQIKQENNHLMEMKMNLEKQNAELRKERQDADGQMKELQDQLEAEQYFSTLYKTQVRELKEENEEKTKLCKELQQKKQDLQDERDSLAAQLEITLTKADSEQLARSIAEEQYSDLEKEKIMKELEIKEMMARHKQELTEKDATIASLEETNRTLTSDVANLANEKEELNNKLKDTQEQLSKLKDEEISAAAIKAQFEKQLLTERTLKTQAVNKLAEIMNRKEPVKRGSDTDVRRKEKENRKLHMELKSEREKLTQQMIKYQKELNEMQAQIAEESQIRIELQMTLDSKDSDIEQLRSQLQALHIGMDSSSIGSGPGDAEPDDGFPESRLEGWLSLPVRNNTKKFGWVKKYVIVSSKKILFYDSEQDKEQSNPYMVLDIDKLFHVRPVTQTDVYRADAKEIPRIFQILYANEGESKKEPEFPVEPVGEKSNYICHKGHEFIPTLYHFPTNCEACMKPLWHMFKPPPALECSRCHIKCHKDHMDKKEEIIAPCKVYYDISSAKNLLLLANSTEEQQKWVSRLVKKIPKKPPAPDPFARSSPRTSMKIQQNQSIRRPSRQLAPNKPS

O=C(O)COc1cccc(-c2nc(Nc3ccc4[nH]ncc4c3)c3ccccc3n2)c1 [KD025m2, 2-(3-(4-(1H-indazol-5-ylamino)quinazolin-2-yl)phenoxy)acetic acid]
Ki (ROCK2): 338 ± 55 nM
inhibition of ROCK2 (Ki) relative to belumosudil (ROCK2; fold lower inhibition than belumosudil): approximately 6 fold

CC(N)C1CCC(C(=O)Nc2ccncc2)CC1 (centres unmarked) [Y-27362]
Ki (ROCK2): 45 ± 5 nM

CC(C)NC(=O)COc1cccc(-[14c]2nc(Nc3ccc4[nH]ncc4c3)c3ccccc3n2)c1 [[^14C]-Belumosudil]
AUCextrap [1, 4]: 0.63 (0.46) %
AUCinf [1, 4]: 6720 (2220) ng or ng equiv × h/mL
AUClast [1, 4]: 6680 (2220) ng or ng equiv × h/mL
Clearanance [1, 4]: 264 (64.3) mL/min
Cmax [1, 4]: 4530 (830) ng or ng equiv/mL
Volume [1, 4]: 138 (59.8) L
Volume, ss [1, 4]: 54.1 (10.7) L
AUCextrap [1, 5]: 8.48 (2.84) %
Clearanance [1, 5]: 122 (29.0) mL/min
Volume [1, 5]: 194 (53.2) L
AUCextrap [1, 6]: 0.53 (66.3); %
AUCinf [1, 6]: 6480 (29.3); ng or ng equiv × h/mL
AUClast [1, 6]: 6440 (29.5); ng or ng equiv × h/mL
Cmax [1, 6]: 4480 (18.0); ng or ng equiv/mL
T1/2 (terminal half-life) [1, 6]: 5.86 (35.8); h
Volume [1, 6]: 130 (38.9); L
Volume, ss [1, 6]: 53.2 (20.6); L
AUCextrap [1, 7]: 8.09 (35.4); %
Clearanance [1, 7]: 120 (23.7); mL/min
Volume [1, 7]: 186 (35.4); L
Volume, ss [1, 7]: 98.2 (23.4) L
Tmax ([1]; male, human, plasma, 100 ug, median (min-max), Part 1 (n = 5), [14C]-belumosudil): 0.25 h
half-life ([1]; male, human, plasma, 100 ug, arithmetic mean (standard deviation), Part 1, [14C]-belumosudil, read-out: T1/2 (converted)): 6.15 h
half-life ([1]; male, human, plasma, 100 ug, geometric mean (geometric CV %), Part 1, [14C]-belumosudil, read-out: T1/2 (terminal half-life) (converted)): 5.9 h
AUCextrap [2, 8]: 3.08 (2.16) %
AUCinf [2, 8]: 8490 (2680) ng or ng equiv × h/mL
Clearanance (apparent clearance) [2, 8]: 435 (173) mL/min
F, AUCinf (bioavailability) [2, 9]: 63.8 (15.7)^b %
F, Cmax (bioavailability) [2, 9]: 63.8 (15.7)^b %
AUCextrap [2, 10]: 10.1 (2.79) %
Clearanance [2, 10]: 126 (59.7) mL/min
AUCextrap [2, 11]: 2.46 (92.9); %
AUCinf [2, 11]: 8100 (37.0); ng or ng equiv × h/mL
AUClast [2, 11]: 7850 (39.3); ng or ng equiv × h/mL
Clearanance (apparent clearance) [2, 11]: 412 (37.0); mL/min
Cmax [2, 11]: 1680 (32.1); ng or ng equiv/mL
F, AUCinf (bioavailability) [2, 12]: 62.2 (26.6)^b; %
F, Cmax (bioavailability) [2, 12]: 62.2 (26.6)^b; %
AUCextrap [2, 13]: 9.76 (31.7); %
Clearanance [2, 13]: 118 (46.1); mL/min
half-life ([2]; male, human, plasma, oral, arithmetic mean (standard deviation), Part 2, [14C]-belumosudil 200-mg capsule): 5.39 h
half-life ([2]; male, human, plasma, oral, geometric mean (geometric CV %), Part 2, [14C]-belumosudil 200-mg capsule): 5.11 h
Tmax ([2]; male, human, plasma, oral, median (min-max), Part 2 (n = 5), [14C]-belumosudil 200-mg capsule): 2 h
radioactivity recovered in excreta [3]: 88.5%
radiolabeled dose recovered in urine [3]: < 5%
total radioactivity recovered in feces [3]: 84.6% and 85%
total radioactivity recovered in feces within the first 24 hours after dosing [3]: ≈ 27.4%
total radioactivity recovered in urine within the first 24 hours after dosing [3]: 3.8%

CC(C)NC(=O)COc1cccc(-c2nc(Nc3ccc4[nH]ncc4c3)c3ccccc3n2)c1 [Belumosudil mesylate, 2-{3-[4-(1H-indazol-5-ylamino)-2-quinazolinyl]phenoxy}-N-(propan-2-yl) acetamide methanesulfonate (1:1)]
solubility in water (Solubility): practically insoluble in water

C=CC(=O)N1CCC[C@@H](n2nc(-c3ccc(Oc4ccccc4)cc3)c3c(N)ncnc32)C1 [ibrutinib]
discontinuation rate because of treatment-emergent adverse events (TEAEs) (patients with cGVHD): 43%
